“And” between values parts separate entries of the source, which are not always exact repeats. Identical values can stand only once. Inconclusive results and toxic doses are left out.
Test system: L1210 leukemia ip in BDF1 mice, survival T/C
Assay: NCI In Vivo Anticancer Drug Screen. Data for tumor model L1210 Leukemia (intraperitoneal) in B6D2F1 (BDF1) mice
Settings: endpoint: mean survival time, higher = longer survival
Method in brief: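 Mice bearing the transplanted tumor received compound or vehicle. Survival of the treated group was divided by that of the vehicle-treated control group to give the ratio.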

[1] = dose: 20.0 mg/kg/injection, schedule: Q01DX009 (ip), vehicle: saline
[2] = dose: 40.0 mg/kg/injection, schedule: Q01DX009 (ip), vehicle: saline
[3] = dose: 80.0 mg/kg/injection, schedule: Q01DX009 (ip), vehicle: saline
[4] = dose: 100.0 mg/kg/injection, schedule: Q01DX001 (ip), vehicle: saline
[5] = dose: 100.0 mg/kg/injection, schedule: Q04DX003 (ip), vehicle: saline with Tween-80
[6] = dose: 200.0 mg/kg/injection, schedule: Q01DX001 (ip), vehicle: saline
[7] = dose: 200.0 mg/kg/injection, schedule: Q04DX003 (ip), vehicle: saline with Tween-80
[8] = dose: 400.0 mg/kg/injection, schedule: Q04DX003 (ip), vehicle: saline with Tween-80

For `COc1ccccc1CC(C)N` (centres undefined), the T/C (dose: 5.0 mg/kg/injection, schedule: Q01DX001 (ip), vehicle: saline) was 100 % of control, the T/C (dose: 10.0 mg/kg/injection, schedule: Q01DX001 (ip), vehicle: saline) was 102 % of control and the T/C (dose: 20.0 mg/kg/injection, schedule: Q01DX001 (ip), vehicle: saline) was 102 % of control. The T/C [1] was 106 % of control, the T/C (dose: 40.0 mg/kg/injection, schedule: Q01DX001 (ip), vehicle: saline) was 96 % of control and the T/C [2] was 97 % of control. The T/C [3] was 111 % of control and the T/C [4] was 103 % of control.
With `CCN(CC)CCOc1ccccc1C` the T/C [1] was 90 % of control, the T/C [2] was 88 % of control and the T/C (dose: 40.0 mg/kg/injection, schedule: Q04DX003 (ip), vehicle: saline) was 106 % of control. The T/C [3] was 89 % of control and the T/C (dose: 80.0 mg/kg/injection, schedule: Q04DX003 (ip), vehicle: saline) was 100 % of control.
In the case of `C(=C\c1cccnc1)/c1ccncc1`, the T/C (dose: 50.0 mg/kg/injection, schedule: Q04DX003 (ip), vehicle: saline with Tween-80) is reported as 97 % of control and the T/C [5] is reported as 102 % of control.
In the case of `O=C(OCC1OC(n2cnc3c(=S)nc[nH]c32)C(OC(=O)c2ccc([N+](=O)[O-])cc2)C1OC(=O)c1ccc([N+](=O)[O-])cc1)c1ccc([N+](=O)[O-])cc1` (centres undefined), the T/C (dose: 16.5 mg/kg/injection, schedule: Q01DX009 (ip), vehicle: saline with Tween-80) is reported as 95 % of control, the T/C (dose: 33.0 mg/kg/injection, schedule: Q01DX009 (ip), vehicle: saline with Tween-80) is reported as 117 % of control and the T/C [4] is reported as 121 % of control. The T/C (dose: 100.0 mg/kg/injection, schedule: Q01DX Z (ip), vehicle: other) was 112 % of control, the T/C (dose: 132.0 mg/kg/injection, schedule: Q01DX001 (ip), vehicle: saline) was 111 % of control and 118 % of control and the T/C [6] was 106 % of control and 120 % of control. For the same compound, the T/C (dose: 200.0 mg/kg/injection, schedule: Q01DX009 (ip), vehicle: saline) was 152 % of control, the T/C (dose: 300.0 mg/kg/injection, schedule: Q01DX001 (ip), vehicle: saline) was 117 % of control and the T/C (dose: 800.0 mg/kg/injection, schedule: Q01DX Z (ip), vehicle: other) was 93 % of control.
`Nc1ncnc2c1ncn2C1COC(CO)C1O` (centres undefined) was tested, and the T/C [4] was 103 % of control, the T/C [6] was 107 % of control and the T/C (dose: 400.0 mg/kg/injection, schedule: Q01DX001 (ip), vehicle: saline) was 107 % of control.
For `CC(C)CC(NC(=O)OC(C)(C)C)C(=O)O` (centres undefined), the T/C (dose: 100.0 mg/kg/injection, schedule: Q01DX001 (ip), vehicle: other) was 104 % of control, the T/C (dose: 200.0 mg/kg/injection, schedule: Q01DX001 (ip), vehicle: other) was 93 % of control and the T/C (dose: 400.0 mg/kg/injection, schedule: Q01DX001 (ip), vehicle: other) was 98 % of control.
`CCNC(=O)C1C2C=CC(C2)C1C(=O)NCC` (centres undefined) was tested, and the T/C [5] was 91 % of control, the T/C [7] was 96 % of control and the T/C [8] was 87 % of control.
`CCC1C/C(=C\NC(N)=O)C(=O)O1` (centres undefined) was tested, and the T/C (dose: 100.0 mg/kg/injection, schedule: Q01DX009 (ip), vehicle: saline with Tween-80) was 96 % of control, the T/C [5] was 96 % of control and the T/C (dose: 200.0 mg/kg/injection, schedule: Q01DX009 (ip), vehicle: saline with Tween-80) was 100 % of control. The T/C [7] was 104 % of control, the T/C (dose: 400.0 mg/kg/injection, schedule: Q01DX009 (ip), vehicle: saline with Tween-80) was 100 % of control and the T/C [8] was 101 % of control.
